Experimental data taken from US8530525B2 (priority 2009, dated 2013).

Assays:
[1] = test system: population spikes (PS) of the hippocampal slice
[2] = test system: population spikes (PS) recorded from the CA1 area of the rat hippocampal slice; type: cell-based
α7 neuronal nAChR = α7 neuronal nAChR (Homo sapiens, UniProt P36544); conditions: cited from earlier work
α3β4 = α3β4 (Homo sapiens, UniProt P30926+P32297); conditions: cited from earlier work
[3] = in vivo; cited from earlier work

Chain of α3β4 (P32297 32-505): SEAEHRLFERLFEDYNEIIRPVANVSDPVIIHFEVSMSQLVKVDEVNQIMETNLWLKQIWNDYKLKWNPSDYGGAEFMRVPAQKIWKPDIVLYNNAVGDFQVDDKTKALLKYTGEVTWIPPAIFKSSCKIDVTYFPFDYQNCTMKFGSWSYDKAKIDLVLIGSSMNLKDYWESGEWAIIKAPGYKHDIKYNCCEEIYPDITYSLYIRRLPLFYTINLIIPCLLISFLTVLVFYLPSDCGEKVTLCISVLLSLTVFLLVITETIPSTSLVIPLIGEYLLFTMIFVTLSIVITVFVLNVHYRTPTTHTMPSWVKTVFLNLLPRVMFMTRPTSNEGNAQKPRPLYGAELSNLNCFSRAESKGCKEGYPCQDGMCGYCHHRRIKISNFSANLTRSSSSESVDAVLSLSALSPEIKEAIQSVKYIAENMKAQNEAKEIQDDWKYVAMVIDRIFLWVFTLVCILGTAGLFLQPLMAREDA
Chain of α3β4 (P30926 22-498): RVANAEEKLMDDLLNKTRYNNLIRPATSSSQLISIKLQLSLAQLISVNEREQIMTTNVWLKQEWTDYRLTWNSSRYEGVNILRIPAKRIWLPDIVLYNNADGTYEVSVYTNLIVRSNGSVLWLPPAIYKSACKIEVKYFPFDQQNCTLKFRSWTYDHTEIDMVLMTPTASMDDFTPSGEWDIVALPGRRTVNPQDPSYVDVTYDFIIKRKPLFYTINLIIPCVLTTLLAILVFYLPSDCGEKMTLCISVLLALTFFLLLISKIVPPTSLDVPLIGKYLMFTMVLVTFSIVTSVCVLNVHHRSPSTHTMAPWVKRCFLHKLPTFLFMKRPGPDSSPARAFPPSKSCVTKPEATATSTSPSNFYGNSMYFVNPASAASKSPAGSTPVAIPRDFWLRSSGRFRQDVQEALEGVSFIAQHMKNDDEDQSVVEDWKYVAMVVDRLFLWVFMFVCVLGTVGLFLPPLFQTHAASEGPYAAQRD
Chain of α7 neuronal nAChR (P36544 23-502): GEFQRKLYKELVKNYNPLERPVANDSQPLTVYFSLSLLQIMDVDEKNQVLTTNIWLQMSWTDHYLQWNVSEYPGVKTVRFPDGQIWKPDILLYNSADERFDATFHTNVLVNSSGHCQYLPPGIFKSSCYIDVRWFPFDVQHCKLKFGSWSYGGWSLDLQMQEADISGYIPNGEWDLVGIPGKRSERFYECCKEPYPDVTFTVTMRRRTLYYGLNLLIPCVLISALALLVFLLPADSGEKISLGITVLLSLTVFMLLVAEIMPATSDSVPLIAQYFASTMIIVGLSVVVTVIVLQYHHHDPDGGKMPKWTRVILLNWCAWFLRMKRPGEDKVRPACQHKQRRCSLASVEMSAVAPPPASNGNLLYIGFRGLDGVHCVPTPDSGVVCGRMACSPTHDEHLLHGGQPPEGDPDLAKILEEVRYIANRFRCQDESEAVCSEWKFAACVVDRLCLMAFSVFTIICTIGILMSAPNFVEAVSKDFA

Q: Which “Effect on PS area” value [1] does the source give for `CN1[C@@H]2CC[C@H]1C[C@@H](OC(=O)C(CO)c1ccccc1)C2` (stereo partly shown) [atropine] here?
A: did not affect PS area

Q: For `CCOP(=O)(OCC)Oc1ccc([N+](=O)[O-])cc1` [POX, paraoxon], which “Maximum inhibition of the PS” value [2] is on record?
A: ~50%

Q: What about the IC50 ([2]; read-out: POX IC50 for inhibition of PS) of the same compound?
A: ~1000 nM

Q: For `CC1=CC(O)CC(C)(O)C=CC(C(C)C)CCC(C)=CCC1` [4R cembranoid, (1S,2E,4R,6R,7E,11E)-cembra-2,7,11-triene-4,6-diol], which “Antagonism of α7 neuronal nAChR” value (α7 neuronal nAChR) is on record?
A: subtype selective antagonist

Q: What about the “Activity at α3β4 subtypes” value (α3β4) of the same compound?
A: little activity

Q: What about the Brain penetration [3] of the same compound?
A: readily penetrates into the brain

Q: What about the Metabolism and excretion [3] of the same compound?
A: promptly metabolized in the liver and excreted as a soluble metabolite
